The values below come from US9096560B2, “5-heterocyclylalkyl-3-hydroxy-2-phenylcyclopent-2-enones as herbicides” (Syngenta Limited, priority 2008, dated 2015).

What all share (assay type): in vivo
Experiment [1] deals with Lolium perenne (LOLPE). In words: Example B pre-emergence herbicidal test, LOLPE. The conditions noted are these: rate 250 g/ha, evaluated after 13 days, 100=total damage to plant, 0=no damage to plant; for pest or weed control at 250 g/ha: Lolium perenne, 312 h. Put shortly: (§1)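 After sowing in standard soil, pots spent a day in the glasshouse (24/16° C, 14 h photoperiod, 65% humidity) before spraying with compound in acetone/water 50:50 with 0.5% Tween 20. Watering followed twice a day, and plants were evaluated 13 days on, with 100 meaning complete damage.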

The subject of experiment [2] is Alopecurus myosuroides (ALOMY). In words: Example B pre-emergence herbicidal test, ALOMY. The conditions noted are these: rate 250 g/ha, evaluated after 13 days, 100=total damage to plant, 0=no damage to plant; for pest or weed control at 250 g/ha: Alopecurus myosuroides, 312 h. An outline of the steps:
as §1

Experiment [3] has as its system Echinochloa crus-galli (ECHCG). In words: Example B pre-emergence herbicidal test, ECHCG. As to conditions: rate 250 g/ha, evaluated after 13 days, 100=total damage to plant, 0=no damage to plant; for pest or weed control at 250 g/ha: Echinochloa crus-galli, 312 h. An outline of the steps:
as §1

The test system of experiment [4] is Avena fatua (AVEFA). In words: Example B pre-emergence herbicidal test, AVEFA. As to conditions: rate 250 g/ha, evaluated after 13 days, 100=total damage to plant, 0=no damage to plant; for pest or weed control at 250 g/ha: Avena fatua, 312 h. An outline of the steps:
as §1

Experiment [5] deals with Lolium perenne (LOLPE). The experiment in a line: Example B post-emergence herbicidal test, LOLPE. The conditions noted are these: rate 250 g/ha, evaluated after 13 days; for pest or weed control at 250 g/ha: Lolium perenne, 312 h, scale 0-100, read-out: Post-emergence activity LOLPE (100=total damage to plant; 0=no damage to plant). Put shortly:
(§2)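 Plants grown 8 days in glasshouse (24/16 °C day/night, 14 h light, 65% humidity), then sprayed with aqueous solution from acetone/water (50:50) formulation with 0.5% Tween 20. Damage scored 13 days later on a 0–100 scale (100 = total damage).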

The test system of experiment [6] is Alopecurus myosuroides (ALOMY). In words: Example B post-emergence herbicidal test, ALOMY. As to conditions: rate 250 g/ha, evaluated after 13 days; for pest or weed control at 250 g/ha: Alopecurus myosuroides, 312 h, scale 0-100, read-out: Post-emergence activity ALOMY (100=total damage to plant; 0=no damage to plant). Put shortly:
as §2

Experiment [7] deals with Echinochloa crus-galli (ECHCG). The experiment in a line: Example B post-emergence herbicidal test, ECHCG. The conditions noted are these: rate 250 g/ha, evaluated after 13 days; for pest or weed control at 250 g/ha: Echinochloa crus-galli, 312 h, scale 0-100, read-out: Post-emergence activity ECHCG (100=total damage to plant; 0=no damage to plant). Put shortly:
as §2

Experiment [8] concerns Avena fatua (AVEFA). In words: Example B post-emergence herbicidal test, AVEFA. The conditions noted are these: rate 250 g/ha, evaluated after 13 days; for pest or weed control at 250 g/ha: Avena fatua, 312 h, scale 0-100, read-out: Post-emergence activity AVEFA (100=total damage to plant; 0=no damage to plant). An outline of the steps:
as §2

For `Cc1cc(C)c(C2=C(O)CC(CC3CCOCC3)C2=O)c(C)c1` (stereo not shown) [Compound P68], the “Pre-emergence activity LOLPE (damage to plant)” value in the experiment with Lolium perenne (LOLPE) [1] stood at 100. Besides, the “Pre-emergence activity ALOMY (damage to plant)” value in experiment [2] was found to be 90. In addition, the “Pre-emergence activity ECHCG (damage to plant)” value in experiment [3] came out at 100. The “Pre-emergence activity AVEFA (damage to plant)” value in the experiment on Avena fatua (AVEFA) [4] was 90. Moreover, the “Post-Emergence Activity LOLPE (100=total damage to plant; 0=no damage to plant)” value in the experiment with Lolium perenne (LOLPE) [5] (scale 0-100) is reported as 100. In experiment [6] (scale 0-100), the “Post-Emergence Activity ALOMY (100=total damage to plant; 0=no damage to plant)” value was 90. Moreover, the “Post-Emergence Activity ECHCG (100=total damage to plant; 0=no damage to plant)” value in experiment [7] (scale 0-100) was found to be 100. In the experiment on Avena fatua (AVEFA) [8] (scale 0-100), the “Post-Emergence Activity AVEFA (100=total damage to plant; 0=no damage to plant)” value was 90.
Consider `COc1ccc(C(=O)OC2=C(c3c(C)cc(C)cc3C)C(=O)CC2CC2CCOC2)cc1` (stereo not shown) [Compound P71], for which the pest or weed control at 250 g/ha in the experiment on Lolium perenne (LOLPE) [1] was determined as 100%; in experiment [2], 90%; in experiment [3], 100%; with Avena fatua (AVEFA) [4] it was 100%; in the experiment on Lolium perenne (LOLPE) [5], 100%; in experiment [6], 100%. In addition, the pest or weed control at 250 g/ha in experiment [7] stood at 100%; with Avena fatua (AVEFA) [8], 90%.
On to `Cc1cc(C)c(C2C(=O)CC(C(O)C3CCOCC3)C2=O)c(C)c1` (stereo not shown) [Compound T3], for which the pest or weed control at 250 g/ha with Lolium perenne (LOLPE) [1] was found to be 60%; in experiment [2] it was 50%; in experiment [3] it was 20%; with Avena fatua (AVEFA) [4], 50%; in the experiment with Lolium perenne (LOLPE) [5], 70%; in experiment [6], 40%. For the same compound, the pest or weed control at 250 g/ha (in experiment [7]; with Avena fatua (AVEFA) [8]) was 70% each time.
In the case of `Cc1cc(C)c(C2C(=O)CC(CC3CCS(=O)(=O)CC3)C2=O)c(C)c1` (stereo not shown) [Compound T7], the pest or weed control at 250 g/ha was determined as 80% in the experiment with Lolium perenne (LOLPE) [1]; 70% in experiment [2]; 100% in experiment [3]; 50% with Avena fatua (AVEFA) [4]; 80% with Lolium perenne (LOLPE) [5]; 100% in experiment [6]. Moreover, the pest or weed control at 250 g/ha (in experiment [7]; in the experiment on Avena fatua (AVEFA) [8]) was 90% throughout.
For the compound `Cc1cc(C)c(C2C(=O)C/C(=C\C3CCSCC3)C2=O)c(C)c1` (stereo not shown) [Compound T9], the pest or weed control at 250 g/ha in the experiment on Lolium perenne (LOLPE) [1] turned out to be 60%; in experiment [2] it was 20%; in experiment [3] it was 20%; with Avena fatua (AVEFA) [4], 0%; with Lolium perenne (LOLPE) [5], 80%; in experiment [6], 60%. For the same compound, the pest or weed control at 250 g/ha in experiment [7] was 80%; with Avena fatua (AVEFA) [8] it was 30%.
With `Cc1cc(C)c(C2C(=O)C/C(=C\C3CC[S+]([O-])CC3)C2=O)c(C)c1` (stereo not shown) [Compound T11], the pest or weed control at 250 g/ha was determined as 70% in the experiment on Lolium perenne (LOLPE) [1]; 30% in experiment [2]; 20% in experiment [3]; 0% in the experiment on Avena fatua (AVEFA) [4]; 50% with Lolium perenne (LOLPE) [5]; 60% in experiment [6]. Also, the results for the pest or weed control at 250 g/ha (in experiment [7]; with Avena fatua (AVEFA) [8]) were 70% and 30%, respectively.
With `Cc1cc(C)c(C2C(=O)C/C(=C\C3CCN(Cc4ccccc4)CC3)C2=O)c(C)c1` (stereo not shown) [Compound T13], the pest or weed control at 250 g/ha with Lolium perenne (LOLPE) [1] came to 30%; in experiment [2], 30%; in experiment [3], 10%; in the experiment on Avena fatua (AVEFA) [4] it was 0%; with Lolium perenne (LOLPE) [5], 30%; in experiment [6], 10%. The results for the pest or weed control at 250 g/ha (in experiment [7]; in the experiment on Avena fatua (AVEFA) [8]) were 40% and 0%, respectively.
`CC(=O)N1CCC(/C=C2\CC(=O)C(c3c(C)cc(C)cc3C)C2=O)CC1` (stereo not shown) [Compound T15]: the pest or weed control at 250 g/ha with Lolium perenne (LOLPE) [1] is 100%; in experiment [2] it was 70%; in experiment [3] it was 100%; in the experiment with Avena fatua (AVEFA) [4], 100%; with Lolium perenne (LOLPE) [5], 100%; in experiment [6], 100%. Moreover, the pest or weed control at 250 g/ha (in experiment [7]; in the experiment on Avena fatua (AVEFA) [8]) was 100% throughout.
Turning to `Cc1cc(C)c(C2C(=O)CC(CC3CCCO3)C2=O)c(C)c1` (stereo not shown) [Compound T18], the pest or weed control at 250 g/ha was determined as 100% in the experiment with Lolium perenne (LOLPE) [1]; 100% in experiment [2]; 100% in experiment [3]; 70% with Avena fatua (AVEFA) [4]; 100% in the experiment with Lolium perenne (LOLPE) [5]; 80% in experiment [6]. In addition, the pest or weed control at 250 g/ha in experiment [7] was 90%; in the experiment on Avena fatua (AVEFA) [8] it was 70%.
For `Cc1cc(C)c(C2C(=O)CC(CCC3CCOCC3)C2=O)c(C)c1` (stereo not shown) [Compound T21], the pest or weed control at 250 g/ha amounted to 100% in the experiment on Lolium perenne (LOLPE) [1]; 100% in experiment [2]; 90% in experiment [3]; 70% in the experiment with Avena fatua (AVEFA) [4]; 90% in the experiment with Lolium perenne (LOLPE) [5]; 90% in experiment [6]. The pest or weed control at 250 g/ha in experiment [7] amounted to 80%; in the experiment with Avena fatua (AVEFA) [8], 90%.
As for `CON1CCC(CC2CC(=O)C(c3c(C)cc(C)cc3C)C2=O)CC1` (stereo not shown) [Compound T23], the pest or weed control at 250 g/ha in the experiment on Lolium perenne (LOLPE) [1] came out at 100%; in experiment [2] it was 100%; in experiment [3] it was 100%; with Avena fatua (AVEFA) [4], 100%; in the experiment with Lolium perenne (LOLPE) [5] it was 100%; in experiment [6], 90%. The pest or weed control at 250 g/ha (in experiment [7]; with Avena fatua (AVEFA) [8]) was 100% throughout.
For the compound `CC(=O)N1CCC(CC2CC(=O)C(c3c(C)cc(C)cc3C)C2=O)CC1` (stereo not shown) [Compound T24], the pest or weed control at 250 g/ha came to 100% in the experiment on Lolium perenne (LOLPE) [1]; 100% in experiment [2]; 100% in experiment [3]; 90% with Avena fatua (AVEFA) [4]; 100% in the experiment on Lolium perenne (LOLPE) [5]; 90% in experiment [6]. For the same compound, the pest or weed control at 250 g/ha (in experiment [7]; in the experiment on Avena fatua (AVEFA) [8]) was 100% throughout.
With `Cc1cc(C)c(C2C(=O)CC(CC3CCC(C)O3)C2=O)c(C)c1` (stereo not shown) [Compound T26], the pest or weed control at 250 g/ha in the experiment with Lolium perenne (LOLPE) [1] is 100%; in experiment [2], 70%; in experiment [3] it was 100%; with Avena fatua (AVEFA) [4], 60%; in the experiment on Lolium perenne (LOLPE) [5], 80%; in experiment [6] it was 60%. In addition, the pest or weed control at 250 g/ha stood at 60% in experiment [7] and 70% in the experiment on Avena fatua (AVEFA) [8].
Regarding `Cc1cc(C)c(C2C(=O)CC(C)(C(O)C3CCOCC3)C2=O)c(C)c1` (stereo not shown) [Compound T27], the pest or weed control at 250 g/ha in the experiment on Lolium perenne (LOLPE) [1] came out at 100%; in experiment [2] it was 90%; in experiment [3], 80%; with Avena fatua (AVEFA) [4], 60%; in the experiment with Lolium perenne (LOLPE) [5], 80%; in experiment [6], 70%. The pest or weed control at 250 g/ha in experiment [7] was determined as 80%; with Avena fatua (AVEFA) [8], 70%.
Consider `Cc1cc(C)c(C2C(=O)C(C)C(CC3CCOC3)C2=O)c(C)c1` (stereo not shown) [Compound T29], for which the pest or weed control at 250 g/ha in the experiment on Lolium perenne (LOLPE) [1] came out at 100%; in experiment [2], 70%; in experiment [3], 90%; in the experiment on Avena fatua (AVEFA) [4], 50%; in the experiment on Lolium perenne (LOLPE) [5], 90%; in experiment [6], 70%. In addition, the pest or weed control at 250 g/ha in experiment [7] was 80%; in the experiment with Avena fatua (AVEFA) [8], 60%.
On to `Cc1cc(C)c(C2C(=O)CC(C)(CC3CCOC3)C2=O)c(C)c1` (stereo not shown) [Compound T30], for which the pest or weed control at 250 g/ha in the experiment with Lolium perenne (LOLPE) [1] was determined as 90%; in experiment [2], 60%; in experiment [3], 80%; in the experiment with Avena fatua (AVEFA) [4], 30%; in the experiment on Lolium perenne (LOLPE) [5], 80%; in experiment [6] it was 80%. For the same compound, the pest or weed control at 250 g/ha was 80% in experiment [7] and 70% in the experiment on Avena fatua (AVEFA) [8].
For the compound `Cc1cc(C)c(C2C(=O)C/C(=C\C3CCN(S(C)(=O)=O)C3)C2=O)c(C)c1` (stereo not shown) [Compound T31], the pest or weed control at 250 g/ha in the experiment on Lolium perenne (LOLPE) [1] was 90%; in experiment [2], 80%; in experiment [3], 80%; with Avena fatua (AVEFA) [4], 90%; in the experiment on Lolium perenne (LOLPE) [5], 70%; in experiment [6], 90%. Besides, the values for the pest or weed control at 250 g/ha (in experiment [7]; with Avena fatua (AVEFA) [8]) were 80% and 90%, respectively.
